Source: US20130149701A1, “METHODS OF IDENTIFYING THERAPEUTIC AGENTS FOR TREATING PERSISTER AND BACTERIAL INFECTION” (priority 2010, published 2013)
Values after ≈ are worked out from the molar mass of the structure shown. “Also recorded” adds a separate entry of the source. Read-outs that look alike come from different tables or passages of the source.

Columns and labels:
[1] = test system: M. tuberculosis strains (wild type and wild type/pOLYG, and wild type/pOLYG+rpsA); assay: microbe, parasite or virus in culture; format: cell-based; conditions: for susceptibility of the RpsA overexpressing Mtb strain to other drugs: compared with parent strain or vector control strain, pH6.8; for MIC: Mycobacterium tuberculosis, read-out: minimum inhibitory concentration (MIC)
[2] = molecular target: DHM444 mutant RpsA binding to tmRNA (Mycobacterium tuberculosis, UniProt P9WH43, DEL438-438); set-up: species or system M. tuberculosis
M. tuberculosis = format: cell-based
[3] = test system: Mtb clinical isolate DHM444 / H37Rv; assay: microbe, parasite or virus in culture; format: cell-based, M. tuberculosis; conditions: Mycobacterium tuberculosis
[4] = molecular target: mutant RpsAΔA438 from the PZA-resistant strain DHM444 (Mycobacterium tuberculosis, UniProt P9WH43, DEL438-438); format: binding, M. tuberculosis

Compound	susceptibility of the RpsA overexpressing Mtb strain to other drugs [1]	effect on tmRNA binding to mutant RpsA [2]	binding to mutant RpsA (ITC) [4]	other results
CCn1cc(C(=O)O)c(=O)c2cc(F)c(N3CCNCC3)cc21 [norfloxacin]	remained the same			
NNC(=O)c1ccncc1 [INH, isoniazid]	remained the same	no effect; also recorded: not affected		
NC(=O)c1cnccn1 [PZA, Pyrazinamide]		no effect; also recorded: not affected	did not bind; also recorded: failed to bind	MIC (M. tuberculosis): 10 µg/mL (≈ 81.2 µM); PZA susceptibility (M. tuberculosis): more susceptible; effect on PZA susceptibility (M. tuberculosis): did not have significant effect; reduction in MIC (M. tuberculosis): 5 fold; MIC ([1]; pH 5.5, PZA, vector control and parental Mtb strain, pH 5.5): 100 µg/mL (≈ 812 µM); MIC ([1]; pH 5.5): 500 µg/mL (≈ 4060 µM); increase in the minimum inhibitory concentration (MIC) ([1]; pH 5.5): 5 fold; MIC [3]: 200 to 300 µg/mL (≈ 1620 to 2440 µM)
[H]/N=C(/N)N[C@H]1[C@H](O)[C@@H](O)[C@H](O[C@@H]2O[C@@H](C)[C@](O)(C=O)[C@H]2O[C@@H]2O[C@@H](CO)[C@H](O)[C@@H](O)[C@@H]2NC)[C@@H](N/C(N)=N\[H])[C@@H]1O [streptomycin]	remained the same			
O=C(O)c1cnccn1 [POA, 2-pyrazinecarboxylic acid]		did not inhibit	not and failed to bind	
CO[C@H]1/C=C/O[C@@]2(C)Oc3c(C)c(O)c4c(O)c(c(/C=N/N5CCN(C)CC5)c(O)c4c3C2=O)NC(=O)/C(C)=C\C=C\[C@H](C)[C@H](O)[C@@H](C)[C@@H](O)[C@@H](C)[C@H](OC(C)=O)[C@@H]1C [rifampin]	remained the same			
